Data as given in US20090017103A1, “Antisense oligonucleotides for prevention of metastasis formation of cancer cells” (priority 2003, published 2009).
Values joined by “and” are separate entries in the source; they are usually repeats but may differ in a detail not shown here. Equal entries are not always repeated.

Tests used:
osteopontin = experiment: Western blot of osteopontin expression after exposure to ASOs; format: cell-based, human; conditions: MDA-MB231, lipofectamine, 10 μM
bone sialoprotein II = experiment: Western blot of bone sialoprotein II expression after exposure to ASOs; format: cell-based, human; conditions: 10 μM
osteonectin = experiment: Western blot of osteonectin expression after exposure to ASOs; format: cell-based, human; conditions: single exposure, lipofectamine, 10 μM
[1] = system: MDA-MB-231 breast cancer cells; experiment: Clonogenicity assay (colony formation); format: cell-based, human; conditions: 20 μM
Description: For determining the response of MDA-MB-231 colony formation to exposure with antisense oligonucleotides and erucylphospho-NNN-trimethylpropanolamine (ErPC3) the following procedure was used. MDA-MB-231 cells were treated for various periods of time (see below), harvested and counted. Cells (5000) were then transferred into semi-solid medium containing 0.8t RPMI-methylcellulose and 30% FBS. Cells were plated onto 3.5 cm Petri-dishes (1 ml/dish) (NUNC, Wiesbaden, Germany) and usual cell culture conditions (37° C., 5% CO2 in humidified air) were applied. Colony formation (clusters of 30 or more cells) was visualized by staining with 3-[4,5-dimethylthiazol-2-yl]-2,5-diphenyltetrazolium-bromide (MTT; Serva, Heidelberg, Germany) and the resulting dark blue colonies were scored by an inverted microscope after 5-7 days. At least three dishes per treatment protocol were used.
Pending on the duration of treatment, 1×10^5-3×10^5 cells were transferred onto 6 well plates (Nunc, Wiesbaden, Germany) and grown for 24 h. For transfection, ASO stock solutions were prepared in medium without FBS. According to the protocol of the manufacturer, the respective ASO stock solution was mixed with lipofectamine to allow ASO-liposome complexes to form. To 200 μl medium containing ASO quantities resulting in 10 μM (Western blot and in vivo model) and in 5, 10, or 20 μM (clonogenicity assay) final ASO-concentrations, an equal volume of medium without FBS was added containing 5, 10, or 20 μl lipofectamine, respectively. In addition to the ASO treatment, a NSO control (20 μM final concentration with 20 μl lipofectamine) and a lipofectamine control (20 μl) were used. […] After 12 h the medium was changed, and cells were further grown for 48-72 h. In the case of a sequential combination treatment this first cycle was repeated with the respective combination partner.
The alkylphosphocholine ErPC3 was synthesized and provided by Prof. H. Eibl (MPI of Biophysical Chemistry, Göttingen, FRG). For treating MDA-MB-231 cells, ErPC3 which was kept as stock solution in ethanol and PBS (10 mM; ratio of diluents 1:1; V:V), was diluted in PBS resulting in final concentrations of 10, 14, and 20 μM. The medium containing ErPC3 was changed after 24 h in all experiments and the cells were further grown for 48-72 h without ErPC3 (for details of sequential exposure see below).
Sequential combination treatment consisted of two or three treatment cycles. The two cycle treatment started either with the ASO and was followed by ErPC3 or was performed with the reverse sequence. The three cycle treatment started either with two cycles of ASO followed by ErPC3 or an initial exposure to ErPC3 was followed by two cycles with an ASO.
Colony counts are presented as mean with corresponding standard deviation. For comparison of incidences between treatment groups the x^2 test was used and for comparison of the lesion sizes the Kruskal-Wallis test was applied. P values≦0.05 were considered significant. Predicted theoretical values of combinations were calculated according to the equation: C=a×b/100, where a and b are colony counts in percent of untreated control obtained in response to single agents. For each concentration applied theoretical values were calculated and compared with the real value of the combination. In addition, isobologram and multiple drug effect analysis was examined by a suitable program (CalcuSyn, Biosoft, Ferguson, USA) to study the nature of the interaction observed. For this purpose, the dose-effect curve for each drug alone was determined based on the experimental observations using the median-effect principle; the combination index (CI) for each combination was then calculated according to the following equation:
CI=(D)1/(Dx)1+(D)2/(Dx)2+(D1)×(D2)/(Dx)1×(Dx)2
where (D)1 and (D)2 are the doses of drug 1 and drug 2 that have x effect when used in combination and (Dx)1 and (Dx)2 are the doses of drug 1 and drug 2 that have the same x effect when used alone. […]

MDA-MB-231^GFP cells [2] = experiment: In vivo model with pretreated MDA-MB-231^GFP cells (osteolytic bone metastasis); parameters: species or system nude rats; lesion size of the rat(s) that developed lytic metastasis, % of control / lesion sizes with respect to all animals of the group compared to untreated control / lesion size of individual animal compared to the untreated control / T/C % (mean lesion size compared to untreated control): concentration or dose not given beside the values; conditions: for T/C × 100: mean lesion size vs untreated control rats; for Incidence of metastasis: cells pretreated in vitro (10 μM);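 as to Mean size of lesion: mean lesion size in relative units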
MDA-MB-231^GFP cells [3] = experiment: In vivo treatment with mini-osmotic pumps (osteolytic bone metastasis model);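 as to Mean size of lesion: mean lesion size in relative units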;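 as to Size of lesion (per animal): lesion size in relative units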; parameters: species or system nude rats; conditions: for X-ray scan of hind legs: lytic lesions (in words): FIG. 5-7; for T/C × 100: mean lesion size vs NSO control rats; for Mean size of lesion / Size of lesion (per animal): mini-osmotic pumps; for Incidence of metastasis: mini-osmotic pumps s.c., 7 mg/kg daily over four weeks

5′-GCGAGGGAGTTCTTCTTCTA-3′ (GCGAGGGAGTTCTTCTTCTA; phosphorothioate backbone, further chemistry not given here) [NSO, reference compound]
osteopontin expression in relation to untreated control (100%) (osteopontin; single exposure): 99.5% | osteopontin expression in relation to untreated control (100%) (osteopontin; twofold exposure): 99% | bone sialoprotein II expression in relation to untreated control (100%) (bone sialoprotein II; MDA-MB231, single exposure, electroporation): 99% | bone sialoprotein II expression in relation to untreated control (100%) (bone sialoprotein II; MDA-MB231, single exposure, lipofectamine): 100% | bone sialoprotein II expression in relation to untreated control (100%) (bone sialoprotein II; MDA-MB231, twofold exposure, lipofectamine): 97% | bone sialoprotein II expression in relation to untreated control (100%) (bone sialoprotein II; MDA-MB231^F (growing without FBS), single exposure, lipofectamine): 100% | bone sialoprotein II expression in relation to untreated control (100%) (bone sialoprotein II; MDA-MB435s, single exposure, lipofectamine): 65% | osteonectin expression in relation to untreated control (100%) (osteonectin; MDA-MB231): 94% | osteonectin expression in relation to untreated control (100%) (osteonectin; MDA-MB231^F (growing without FBS)): 80% | osteonectin expression in relation to untreated control (100%) (osteonectin; MDA-MB435s): 97% | % Control ([1]; Exp. III a): 94% | Mean colony no. ([1]; Exp. III a, control 456): 430 | % Control ([1]; Experiment II, single treatment): 96% | Mean colony no. ([1]; Experiment II, single treatment, control 705): 676 | % Control ([1]; Experiment III b): 97% | Mean colony no. ([1]; Experiment III b, control 517): 504 | T/C × 100 (MDA-MB-231^GFP cells [2]; 4 weeks): 78 | T/C × 100 (MDA-MB-231^GFP cells [2]; 6 weeks): 95 | T/C × 100 (MDA-MB-231^GFP cells [2]; 8 weeks): 140 | X-ray scan of hind legs: osteolytic lesions (in words) (MDA-MB-231^GFP cells [2]; FIG. 3 and FIG. 4, one rat each, cells pre-exposed): large osteolytic lesions in the femur, tibia and fibula | Incidence of metastasis (MDA-MB-231^GFP cells [2]; observation period 4 weeks): 2/2 | Mean size of lesion (MDA-MB-231^GFP cells [2]; observation period 4 weeks, pretreated cells): 173 R.U. | Incidence of metastasis (MDA-MB-231^GFP cells [2]; observation period 6 weeks): 2/2 | Mean size of lesion (MDA-MB-231^GFP cells [2]; observation period 6 weeks, pretreated cells): 287 R.U. | Incidence of metastasis (MDA-MB-231^GFP cells [2]; observation period 8 weeks): 2/2 | Mean size of lesion (MDA-MB-231^GFP cells [2]; observation period 8 weeks, pretreated cells): 485 R.U. | T/C % (mean lesion size compared to untreated control) (MDA-MB-231^GFP cells [2]; pretreated cells, after eight weeks): 140% | average lesion sizes compared to untreated control (MDA-MB-231^GFP cells [2]; pretreated cells, after four weeks): about 78% | lesion sizes with respect to all animals of the group compared to untreated control (MDA-MB-231^GFP cells [2]; pretreated cells, over observation period week 4 to week 8): 104% | X-ray scan of hind legs: lytic lesions (in words) (MDA-MB-231^GFP cells [3]; eight weeks after tumor cell implantation): clear increase of lytic lesions in the tibia and fibula | X-ray scan of hind legs: lytic lesions (in words) (MDA-MB-231^GFP cells [3]; four weeks after tumor cell implantation, therapy from implantation): small lytic lesions in the tibia | X-ray scan of hind legs: lytic lesions (in words) (MDA-MB-231^GFP cells [3]; six weeks after tumor cell implantation): visible lytic lesions in the tibia and fibula | X-ray scan of hind legs: lytic lesions (in words) (MDA-MB-231^GFP cells [3]; ten weeks after tumor cell implantation): lytic metastases with clear deterioration are visible in all regions of the right hind leg | T/C × 100 (MDA-MB-231^GFP cells [3]; week 4): 100 | Mean size of lesion (MDA-MB-231^GFP cells [3]; week 4): 33 R.U. | Size of lesion (per animal) (MDA-MB-231^GFP cells [3]; week 4): 45 R.U. and 8 R.U. and 46 R.U. | Incidence of metastasis (MDA-MB-231^GFP cells [3]; week 4): 3/3 | T/C × 100 (MDA-MB-231^GFP cells [3]; week 6): 100 | Mean size of lesion (MDA-MB-231^GFP cells [3]; week 6): 177 R.U. | Size of lesion (per animal) (MDA-MB-231^GFP cells [3]; week 6): 307 R.U. and 29 R.U. and 194 R.U. | Incidence of metastasis (MDA-MB-231^GFP cells [3]; week 6): 3/3 | T/C × 100 (MDA-MB-231^GFP cells [3]; week 8): 100 | Mean size of lesion (MDA-MB-231^GFP cells [3]; week 8): 273 R.U. | Size of lesion (per animal) (MDA-MB-231^GFP cells [3]; week 8): 403 R.U. and 99 R.U. and 318 R.U. | Incidence of metastasis (MDA-MB-231^GFP cells [3]; week 8): 3/3 | T/C × 100 (MDA-MB-231^GFP cells [3]; week 9): 100 | Mean size of lesion (MDA-MB-231^GFP cells [3]; week 9): 379 R.U. | Size of lesion (per animal) (MDA-MB-231^GFP cells [3]; week 9): 453 R.U. and 278 R.U. and 406 R.U. | Incidence of metastasis (MDA-MB-231^GFP cells [3]; week 9): 3/3 | T/C × 100 (MDA-MB-231^GFP cells [3]; week 10): 100 | Mean size of lesion (MDA-MB-231^GFP cells [3]; week 10): 429 R.U. | Size of lesion (per animal) (MDA-MB-231^GFP cells [3]; week 10): 512 R.U. and 313 R.U. and 461 R.U. | Incidence of metastasis (MDA-MB-231^GFP cells [3]; week 10): 3/3 | T/C × 100 (MDA-MB-231^GFP cells [3]; week 12): 100 | Mean size of lesion (MDA-MB-231^GFP cells [3]; week 12): 434 R.U. | Size of lesion (per animal) (MDA-MB-231^GFP cells [3]; week 12): 534 R.U. and 316 R.U. and 453 R.U. | Incidence of metastasis (MDA-MB-231^GFP cells [3]; week 12): 3/3
